Values joined by “and” are separate entries in the source; they are usually repeats but may differ in a detail not shown here. Equal values may be shown once. Residues, ends and D or L forms follow the SMILES beside them.
Assays:
[1] = system: spontaneously hypertensive rats; settings: 6 hours after oral administration of 1 mg synthesized peptide per kg, Maeno et al. (13); cited from earlier work
[2] = molecular target: angiotensin I converting enzyme (Homo sapiens, UniProt P12821); settings: Maeno et al. (13); read-out: IC50, quantity of peptide needed for inhibiting 50% of the enzyme activity; cited from earlier work
bacteria = settings: Zucht et al. (10); Recio and Visser (11); cited from earlier work
[3] = molecular target: angiotensin I converting enzyme (ACE) (Homo sapiens, UniProt P12821); assay: biochemical; settings: for IC50: IC50 (μM), synthetic peptides, tested in triplicate, deduced from linearized inhibition curve; for inhibition at 50 µM: primary amine or captopril concentration equal to 50 μM, chromatographic peaks collected from trypsic hydrolysate of αS2 casein, tested twice
angiotensin I converting enzyme (ACE), sequence (P12821 30-1306, species assumed): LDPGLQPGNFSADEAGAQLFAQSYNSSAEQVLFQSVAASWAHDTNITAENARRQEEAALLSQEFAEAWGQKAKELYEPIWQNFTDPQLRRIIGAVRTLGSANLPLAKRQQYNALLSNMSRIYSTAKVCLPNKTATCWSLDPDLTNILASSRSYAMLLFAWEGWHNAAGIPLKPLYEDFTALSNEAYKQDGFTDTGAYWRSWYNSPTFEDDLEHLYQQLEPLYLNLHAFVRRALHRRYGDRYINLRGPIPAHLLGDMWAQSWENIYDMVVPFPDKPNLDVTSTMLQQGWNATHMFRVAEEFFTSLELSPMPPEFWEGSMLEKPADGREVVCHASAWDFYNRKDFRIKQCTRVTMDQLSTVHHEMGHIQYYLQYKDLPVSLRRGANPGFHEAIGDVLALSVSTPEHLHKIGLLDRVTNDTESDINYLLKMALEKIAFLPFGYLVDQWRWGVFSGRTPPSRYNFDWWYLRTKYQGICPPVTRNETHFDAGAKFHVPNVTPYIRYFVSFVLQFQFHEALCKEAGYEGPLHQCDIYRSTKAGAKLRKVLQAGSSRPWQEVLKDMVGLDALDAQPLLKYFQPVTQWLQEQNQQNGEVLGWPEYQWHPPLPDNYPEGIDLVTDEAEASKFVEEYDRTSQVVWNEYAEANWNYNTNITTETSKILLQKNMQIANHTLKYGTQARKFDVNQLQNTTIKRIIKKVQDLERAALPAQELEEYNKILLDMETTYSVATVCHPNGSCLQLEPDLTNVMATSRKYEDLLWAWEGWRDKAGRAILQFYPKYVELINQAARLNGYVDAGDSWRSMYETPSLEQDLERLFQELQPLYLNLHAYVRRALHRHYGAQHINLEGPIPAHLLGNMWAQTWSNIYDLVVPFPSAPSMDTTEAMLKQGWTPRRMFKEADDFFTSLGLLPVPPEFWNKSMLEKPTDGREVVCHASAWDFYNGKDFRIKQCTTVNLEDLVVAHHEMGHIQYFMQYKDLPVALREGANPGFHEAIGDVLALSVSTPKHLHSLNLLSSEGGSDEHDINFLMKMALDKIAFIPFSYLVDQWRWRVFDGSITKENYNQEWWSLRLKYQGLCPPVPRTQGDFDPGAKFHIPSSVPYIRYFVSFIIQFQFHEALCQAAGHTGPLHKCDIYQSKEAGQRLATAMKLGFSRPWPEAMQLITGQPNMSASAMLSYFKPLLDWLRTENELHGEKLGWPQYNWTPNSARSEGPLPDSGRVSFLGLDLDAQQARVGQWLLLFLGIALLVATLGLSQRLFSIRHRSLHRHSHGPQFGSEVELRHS

angiotensin I converting enzyme, sequence (P12821 30-1306): as the sequence (P12821 30-1306, species assumed) above

Row | Compound | IC50 [3] | inhibition at 50 µM [3] [%] | also measured
1 | CNαS2-(f189-193): αS2 casein peptide 189-193, ACE inhibitor reported by Maeno et al. (13) (AMKPW; UniProt P02663 204-208, looked up, fragment) | – | – | antihypertensive effect in vivo [1]: do not present any significant antihypertensive effect; IC50 [2]: 580 µM
2 | CNαS2-(f164-179): αS2 casein peptide with antibacterial activity, Recio and Visser (11) (LKKISQRYQKFALPQY; UniProt P02663 179-194, looked up, fragment) | – | – | antibacterial activity (bacteria): antibacterial activity
3 | CC[C@H](C)[C@H](NC(=O)[C@H](C)NC(=O)[C@H](CCSC)NC(=O)[C@@H](N)CC(N)=O)C(=O)N[C@@H](CC(N)=O)C(=O)N1CCC[C@H]1C(=O)N[C@@H](CO)C(=O)N[C@@H](CCCCN)C(=O)O [CNαS2-(f25-32)] (H-NMAINPSK-OH; N-terminus and C-terminus assumed) | < 60 µM | 42.5 | –
4 | CNαS2-(f165-203): αS2 casein peptide with antibacterial activity, Zucht et al. (10) (KKISQRYQKFALPQYLKTVYQHQKAMKPWIQPKTKVIPY; UniProt P02663 180-218, looked up, fragment) | – | – | antibacterial activity (bacteria): antibacterial activity
5 | CC[C@H](C)[C@H](NC(=O)[C@H](CCC(=O)O)NC(=O)[C@H](CC(N)=O)NC(=O)[C@H](CC(C)C)NC(=O)[C@H](C)N)C(=O)N[C@@H](CC(N)=O)C(=O)N[C@@H](CCC(N)=O)C(=O)N[C@@H](Cc1ccccc1)C(=O)N[C@@H](Cc1ccc(O)cc1)C(=O)N[C@@H](CCC(N)=O)C(=O)N[C@@H](CCCCN)C(=O)O [CNαS2-(f81-91)] (H-ALNEINQFYQK-OH; N-terminus and C-terminus assumed) | – | 27.2 | –
6 | CNαS2-(f190-197): αS2 casein peptide 190-197, ACE inhibitor reported by Maeno et al. (13) (MKPWIQPK; UniProt P02663 205-212, looked up, fragment) | – | – | antihypertensive effect in vivo [1]: do not present any significant antihypertensive effect; IC50 [2]: 300 µM
7 | CC[C@H](C)[C@H](NC(=O)[C@H](C)NC(=O)[C@H](CCSC)NC(=O)[C@@H](N)CC(N)=O)C(=O)N[C@@H](CC(N)=O)C(=O)N1CCC[C@H]1C(=O)O [CNαS2-(f25-30), Asn-Met-Ala-Ile-Asn-Pro] (H-NMAINP-OH) | < 60 µM | – | –
8 | CNαS2-(f198-202): αS2 casein peptide 198-202, ACE inhibitor reported by Maeno et al. (13) (TKVIP; UniProt P02663 213-217, looked up, fragment) | – | – | antihypertensive effect in vivo [1]: do not present any significant antihypertensive effect; IC50 [2]: 400 µM

Further lines, with some results ahead:

Row | IC50 [3] | inhibition at 50 µM [3] [%] | Compound | also measured
9 | < 60 µM | – | CC(C)C[C@H](NC(=O)[C@H](C)NC(=O)[C@@H](N)Cc1ccccc1)C(=O)N1CCC[C@H]1C(=O)O [CNαS2-(f174-177), Phe-Ala-Leu-Pro] (H-FALP-OH) | –
10 | < 60 µM and 4.3 µM | > 70 | CC(C)C[C@H](NC(=O)[C@H](Cc1ccc(O)cc1)NC(=O)[C@H](CCC(N)=O)NC(=O)[C@@H]1CCCN1C(=O)[C@H](CC(C)C)NC(=O)[C@H](C)NC(=O)[C@@H](N)Cc1ccccc1)C(=O)N[C@@H](CCCCN)C(=O)O [CNαS2-(f174-181)] (H-FALPQYLK-OH; N-terminus and C-terminus assumed) | –
11 | < 60 µM and 4.3 µM | > 70 | CC(C)C[C@H](NC(=O)[C@H](C)NC(=O)[C@@H](N)Cc1ccccc1)C(=O)N1CCC[C@H]1C(=O)N[C@@H](CCC(N)=O)C(=O)N[C@@H](Cc1ccc(O)cc1)C(=O)O [CNαS2-(f174-179), Phe-Ala-Leu-Pro-Gln-Tyr] (H-FALPQY-OH; N-terminus and C-terminus assumed) | –
12 | – | 32.2 | CC[C@H](C)[C@H](NC(=O)[C@H](CCC(=O)O)NC(=O)[C@H](CC(N)=O)NC(=O)[C@H](CC(C)C)NC(=O)[C@H](C)N)C(=O)N[C@@H](CC(N)=O)C(=O)N[C@@H](CCC(N)=O)C(=O)N[C@@H](Cc1ccccc1)C(=O)N[C@@H](Cc1ccc(O)cc1)C(=O)O [CNαS2-(f81-89)] (H-ALNEINQFY-OH; N-terminus and C-terminus assumed) | –
13 | < 60 µM | > 70 | CC(C)C[C@H](NC(=O)[C@H](Cc1ccc(O)cc1)NC(=O)[C@H](CCC(N)=O)NC(=O)[C@@H]1CCCN1C(=O)[C@@H](N)Cc1ccccc1)C(=O)N[C@@H](CCC(N)=O)C(=O)N[C@@H](Cc1ccc(O)cc1)C(=O)O [CNαS2-(f92-98), Phe-Pro-Gln-Tyr-Leu-Gln-Tyr] (H-FPQYLQY-OH; N-terminus and C-terminus assumed) | –
14 | < 60 µM | > 70 | CC(C)[C@H](NC(=O)[C@@H](N)[C@@H](C)O)C(=O)N[C@@H](Cc1ccc(O)cc1)C(=O)O [CNαS2-(f182-184), Thr-Val-Tyr] (H-Thr-Val-Tyr-OH; N-terminus and C-terminus assumed) | –

From US20060234942A1, “Use of at least one $g(a)62 casein peptide with angiotensin i converting enzyme inhibiting activity for preparing medicines, food products and food complements” (priority 2002, published 2006)
